Data: patent publication US11820728B2, “Carbonyl lipids and lipid nanoparticle formulations for delivery of nucleic acids” (Acuitas Therapeutics, Inc., priority 2017, dated 2023)

Legend:
[1] = Determination of pKa of formulated lipids (TNS fluorescence assay in lipid nanoparticles); assay type: physicochemical; conditions: lipid formulated in LNP, 47.5% cationic lipid/10% DSPC/40.8% Cholesterol/1.7% PEG lipid
Protocol: As described elsewhere, the pKa of formulated lipids is correlated with the effectiveness of LNPs for delivery of nucleic acids (see Jayaraman et al, Angewandte Chemie, International Edition (2012), 51(34), 8529-8533; Semple et al, Nature Biotechnology 28, 172-176 (2010)). The preferred range of pKa is ˜5 to ˜7. The pKa of each lipid was determined in lipid nanoparticles using an assay based on fluorescence of 2-(p-toluidino)-6-napthalene sulfonic acid (TNS). Lipid nanoparticles comprising novel lipid or structure (I) or (II)/DSPC/cholesterol/PEG-lipid (50/10/38.5/1.5 or 47.5:10:40.8:1.7 mol %) in PBS at a concentration of 0.4 mM total lipid are prepared using the in-line process as described in Example 1. TNS was prepared as a 100 μM stock solution in distilled water. Vesicles were diluted to 24 μM lipid in 2 mL of buffered solutions containing 10 mM HEPES, 10 mM MES, 10 mM ammonium acetate, and 130 mM NaCl, where the pH ranged from 2.5 to 11. An aliquot of the TNS solution was added to give a final concentration of 1 μM and following vortex mixing fluorescence intensity was measured at room temperature in a SLM Aminco Series 2 Luminescence Spectrophotometer using excitation and emission wavelengths of 321 nm and 445 nm. A sigmoidal best fit analysis was applied to the fluorescence data and the pKa was measured as the pH giving rise to half-maximal fluorescence intensity.
(§1) Tables 3 and 4 provide properties of representative compounds of structure (I) and (II), respectively, which were formulated using the following molar ratio: 47.5% cationic lipid/10% distearoylphosphatidylcholine (DSPC)/40.8% Cholesterol/1.7% PEG lipid (“PEG-DMA” 2-[2-(ω-methoxy(polyethyleneglycol2000)ethoxy]-N,N-ditetradecylacetamide). Relative activity was determined by measuring luciferase expression in the liver 4 hours following administration via tail vein injection as described in Example 1. The activity was compared at a dose of 0.3 and 1.0 mg mRNA/kg and expressed as ng luciferase/g liver measured 4 hours after administration, as described in Example 1.

[2] = tested on: luciferase expression in the liver; assay: Luciferase mRNA in vivo evaluation using lipid nanoparticle compositions; set-up: species or system mice; conditions: tail vein injection, liver 4 hours after administration, LNP 47.5/10/40.8/1.7; for Liver Luc @ 0.3 mg/kg (ng luc/g liver): 0.3 mg mRNA/kg; for Liver Luc @ 1.0 mg/kg (ng luc/g liver): 1.0 mg mRNA/kg
Protocol: A lipid of structure (I) or (II), DSPC, cholesterol and PEG-lipid were solubilized in ethanol at a molar ratio of 50:10:38.5:1.5 or 47.5:10:40.8:1.7. Lipid nanoparticles (LNP) were prepared at a total lipid to mRNA weight ratio of approximately 10:1 to 30:1. Briefly, the mRNA was diluted to 0.2 mg/mL in 10 to 50 mM citrate buffer, pH 4. Syringe pumps were used to mix the ethanolic lipid solution with the mRNA aqueous solution at a ratio of about 1:5 to 1:3 (vol/vol) with total flow rates above 15 mL/min. The ethanol was then removed and the external buffer replaced with PBS by dialysis. Finally, the lipid nanoparticles were filtered through a 0.2 µm pore sterile filter.
Studies were performed in 6-8 week old female C57BL/6 mice (Charles River) 8-10 week old CD-1 (Harlan) mice (Charles River) according to guidelines established by an institutional animal care committee (ACC) and the Canadian Council on Animal Care (CCAC). Varying doses of mRNA-lipid nanoparticle were systemically administered by tail vein injection and animals euthanized at a specific time point (e.g., 4 hours) post-administration. Liver and spleen were collected in pre-weighed tubes, weights determined, immediately snap frozen in liquid nitrogen and stored at −80° C. until processing for analysis.
For liver, approximately 50 mg was dissected for analyses in a 2 mL FastPrep tubes (MP Biomedicals, Solon Ohio). ¼″ ceramic sphere (MP Biomedicals) was added to each tube and 500 μL of Glo Lysis Buffer—GLB (Promega, Madison WI) equilibrated to room temperature was added to liver tissue. Liver tissues were homogenized with the FastPrep24 instrument (MP Biomedicals) at 2×6.0 m/s for 15 seconds. Homogenate was incubated at room temperature for 5 minutes prior to a 1:4 dilution in GLB and assessed using SteadyGlo Luciferase assay system (Promega). Specifically, 50 μL of diluted tissue homogenate was reacted with 50 μL of SteadyGlo substrate, shaken for 10 seconds followed by 5 minute incubation and then quantitated using a CentroXS^3 LB 960 luminometer (Berthold Technologies, Germany). The amount of protein assayed was determined by using the BCA protein assay kit (Pierce, Rockford, IL). Relative luminescence units (RLU) were then normalized to total μg protein assayed. To convert RLU to ng luciferase a standard curve was generated with QuantiLum Recombinant Luciferase (Promega).
The FLuc mRNA (L-6107) from Trilink Biotechnologies will express a luciferase protein, originally isolated from the firefly, photinus pyralis. FLuc is commonly used in mammalian cell culture to measure both gene expression and cell viability. It emits bioluminescence in the presence of the substrate, luciferin. This capped and polyadenylated mRNA is fully substituted with 5-methylcytidine and pseudouridine.
as §1

Row | Structure (SMILES) | pKa ([1]; structure (I) compounds) | pKa ([1]; structure (II) compounds) | Liver Luc @ 0.3 mg/kg (ng luc/g liver) ([2]; structure (I) compounds) | Liver Luc @ 1.0 mg/kg (ng luc/g liver) ([2]; structure (I) compounds) | Liver Luc @ 0.3 mg/kg (ng luc/g liver) ([2]; structure (II) compounds) | Liver Luc @ 1.0 mg/kg (ng luc/g liver) ([2]; structure (II) compounds)
1 | CCCCCCCCC(CCCCCC)COC(=O)CCCCCCCN(CCCCCCCC(=O)OCC(CCCCCC)CCCCCCCC)CCCCC(=O)N(CC)CC (stereo not shown) [Compound I-11] | 5.89 |  | 228 ± 101 ng luc/g liver | 910 ± 454 ng luc/g liver |  | 
2 | CCCCCCCCNC(=O)CCCCN(CCCCCC(=O)OCC(CCCCCC)CCCCCCCC)CCCCCC(=O)OCC(CCCCCC)CCCCCCCC (stereo not shown) [Compound I-3] | 5.99 |  | 139 ± 43 ng luc/g liver | 1711 ± 507 ng luc/g liver |  | 
3 | CCCCCCCCCN(CCO)C(=O)CCCCN(CCCCCC(=O)OCC(CCCCCC)CCCCCCCC)CCCCCC(=O)OCC(CCCCCC)CCCCCCCC (stereo not shown) [Compound I-6] | 6.32 |  | 580 ± 209 ng luc/g liver | 3290 ± 582 ng luc/g liver |  | 
4 | CCCCCCCCC(CCCCCC)COC(=O)CCCCCN(CCCCCC(=O)OCC(CCCCCC)CCCCCCCC)CCCCC(=O)O (stereo not shown) [Compound I-2] | 5.57 |  |  |  |  | 
5 | CCCCCCCCC(CCCCCC)COC(=O)CCCCCCCN(CCCCCCCC(=O)OCC(CCCCCC)CCCCCCCC)CCCCC(=O)N(CCCO)CCCCCCCC (stereo not shown) [Compound I-12] | 6.01 |  | 413 ± 143 ng luc/g liver | 4002 ± 1573 ng luc/g liver |  | 

Further lines, with some results ahead:

Row | pKa ([1]; structure (I) compounds) | pKa ([1]; structure (II) compounds) | Structure (SMILES) | Liver Luc @ 0.3 mg/kg (ng luc/g liver) ([2]; structure (I) compounds) | Liver Luc @ 1.0 mg/kg (ng luc/g liver) ([2]; structure (I) compounds) | Liver Luc @ 0.3 mg/kg (ng luc/g liver) ([2]; structure (II) compounds) | Liver Luc @ 1.0 mg/kg (ng luc/g liver) ([2]; structure (II) compounds)
6 |  | 5.63 | CCCCCCCC(=O)N(C)CCCN(CCCCCC(=O)OCC(CCCC)CCCCCC)CCCCCC(=O)OCC(CCCC)CCCCCC (stereo not shown) [II-14] |  |  | 128 ± 17 ng luc/g liver | 827 ± 537 ng luc/g liver
7 |  | 5.95 | CCCCCCCCC(CCCCCC)COC(=O)CCCCCN(CCCCCC(=O)OCC(CCCCCC)CCCCCCCC)CCCCNC(=O)CCCCCCC (stereo not shown) [II-4] |  |  | 150 ± 59 ng luc/g liver | 1405 ± 306 ng luc/g liver
8 |  | 6.08 | CCCCCCCCC(CCCCCC)COC(=O)CCCCCN(CCCCCC(=O)OCC(CCCCCC)CCCCCCCC)CCCN(CCCO)C(=O)CCCCCCC (stereo not shown) [II-16] |  |  | 93 ± 38 ng luc/g liver | 1312 ± 569 ng luc/g liver
9 |  | 6.8 | CCCCCCCCC(CCCCCC)COC(=O)CCCCCCCN(CCCCCCCC(=O)OCC(CCCCCC)CCCCCCCC)CCCCN(C)C(C)=O (stereo not shown) [II-5] |  |  | 146 ± 16 ng luc/g liver | 695 ± 278 ng luc/g liver
